Read-outs that look alike come from different tables or passages of the source.
How the values were obtained:
Pgp [1] = target: T1, Pgp (Homo sapiens, UniProt P08183); parameters: method as in PMID 27336199, PMID 26797828; conditions: cited from earlier work
T1 construct: expressed in transfected cells; host or cells: MDCK (Madin-Darby Canine Kidney) cells, gift of Dr. Maria Alessandra Contino, University of Bari

Caco-2 cells monolayer = test system: Caco-2 cells monolayer; parameters: method as in PMID 27336199, PMID 26797828; conditions: cited from earlier work
hCMEC/D3 cells monolayer [2] = experiment: Doxorubicin delivery across BBB monolayer (Transwell); conditions: 25 μM MK571 or 5 μM fumitremorgin C alone, 5 μM doxorubicin 3 h
Description: Cells were seeded at 50,000/cm² density, and grown for 7 days up to confluence in 6-well Transwell devices (0.4 μm diameter pores-size, Transwell insert surface: 4.67 cm^2; Corning Life Sciences, Chorges, France for transport assays) or 24-well Transwell devices (0.4 μm diameter pores-size, Transwell insert surface: 0.33 cm^2; Corning Life Sciences, for TEER measurements), to allow the formation of a competent BBB. […] TEER was measured using a Voltohmetro Millicell-ERS (Millipore, Bedford, MA, USA), according to the manufacturer’s instructions. […] This value was subtracted from each value obtained in the presence of the cells.
(A) Human cellular microvascular endothelial cells/D3 clone hCMEC/D3 cells were grown in the upper insert of Transwell devices for 7 days. […] Cell viability was measured by a chemiluminescence-based assay, in triplicates. Data are presented as means ± SD (n = 4). […] (B) hCMEC/D3 cells were grown in the upper insert of Transwell devices for 7 days. […] Cells were lysed and immunoblotted with the indicated antibodies. β-Tubulin level was used as control of equal protein loading. […] The amount of doxorubicin in the medium of the lower chamber was measured spectrofluorimetrically, in duplicates. […]
doxorubicin in the medium of the lower chamber was measured spectrofluorimetrically, in […]

hCMEC/D3 cells monolayer [3] = experiment: Permeability of dextran-FITC, sucrose, inulin and lucifer yellow across BBB monolayer
[4] = test system: primary human GB adherent cells (AC); experiment: Cytotoxicity (LDH release, caspase 3 activity, cell viability) in glioblastoma adherent cells; format: cell-based; conditions: 5 µM doxorubicin alone
Description: Cell viability was evaluated by ATPLite kit (PerkinElmer), as per manufacturer’s instructions. The results were expressed as percentage of viable cells in each experimental condition versus untreated cells (considered 100%).
The release of LDH in cell supernatant was measured as reported in [16], using a Synergy HT microplate reader. Both intracellular and extracellular enzyme activities were expressed as μmol NADH oxidized/min/dish, then extracellular LDH activity was calculated as percentage of the total LDH activity. For cytotoxicity assays in co-cultures, 5 μM doxorubicin, alone or in the presence of compounds, was added to the upper chamber of Transwell inserts. After 24 h, both cell culture medium and GB cells from the lower chamber were collected, and checked for the activity of LDH, as described above.
The activity of caspase 3, taken as an index of apoptosis, was measured by incubating 20 µg of cell lysates, collected from GB cells or GB cells growing under BBB monolayer, as reported above, with the fluorogenic substrate of caspase 3 DEVD-7-amino-4-methylcumarine (DEVD-AMC), as reported in [11]. Results were expressed as nmoles AMC/mg proteins, using a calibration curve previously set.
Figure 3 Effects of Pgp ligands on doxorubicin cytotoxicity in glioblastoma cells. Adherent cells (AC) or neurospheres (NS) from glioblastoma samples were grown for 24 h (panel A–B) or 48 h (panel C) in fresh medium (ctrl) or in the presence of 1 nM of compounds 1–6. When indicated, 5 µM doxorubicin (doxo) was co-incubated. (A) The cell culture supernatant was checked spectrophotometrically for the extracellular activity of LDH, in duplicates. Pooled data of patients 1-3 are presented as means ± SD (n = 3). Vs. AC ctrl: * p < 0.001; vs. NS ctrl: ° p < 0.001; vs. NS doxo: ^# p < 0.001. (B) The activity of caspase 3 was measured fluorimetrically, in duplicates. Data are means ± SD (n = 3). Pooled data of patients 1–3 are presented as means ± SD (n = 3). Vs. AC ctrl: * p < 0.001; vs. NS ctrl: ° p < 0.01; vs. NS doxo: ^# p < 0.05. […] Pooled data of patients 1-3 are presented as means ± SD (n = 3). […]

BCRP = target: T2, BCRP (Homo sapiens, UniProt Q9UNQ0); experiment: Doxorubicin transport across BCRP-MDCK monolayer; format: cell-based; conditions: 1 nM compound 24 h, 5 μM doxorubicin last 3 h
T2 construct: expressed in transfected cells; host or cells: MDCK (Madin-Darby Canine Kidney) cells, gift of Dr. Maria Alessandra Contino, University of Bari
T2 sequence (Q9UNQ0 1-655): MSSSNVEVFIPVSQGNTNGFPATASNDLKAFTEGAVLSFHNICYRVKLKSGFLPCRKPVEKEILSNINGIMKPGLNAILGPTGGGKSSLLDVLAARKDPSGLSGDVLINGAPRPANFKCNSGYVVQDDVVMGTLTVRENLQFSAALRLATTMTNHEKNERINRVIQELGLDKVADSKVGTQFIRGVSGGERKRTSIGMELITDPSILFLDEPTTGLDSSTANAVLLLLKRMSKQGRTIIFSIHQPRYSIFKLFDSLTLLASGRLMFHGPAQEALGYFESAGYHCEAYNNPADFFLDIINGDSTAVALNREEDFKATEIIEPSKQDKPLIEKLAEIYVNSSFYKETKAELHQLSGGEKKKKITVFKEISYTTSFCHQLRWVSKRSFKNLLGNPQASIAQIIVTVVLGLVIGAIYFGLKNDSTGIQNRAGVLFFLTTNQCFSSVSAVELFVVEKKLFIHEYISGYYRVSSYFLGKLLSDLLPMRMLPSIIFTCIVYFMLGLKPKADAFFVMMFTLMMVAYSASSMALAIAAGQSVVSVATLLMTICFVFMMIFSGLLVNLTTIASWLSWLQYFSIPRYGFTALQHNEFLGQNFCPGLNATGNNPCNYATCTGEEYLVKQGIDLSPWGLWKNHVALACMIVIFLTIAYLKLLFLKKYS
Description: (§1) MDCK, Pgp-MDCK, MRP1-MDCK and BCRP-MDCK cells were a kind gift of Dr. Maria Alessandra Contino (Department of Pharmacy, University of Bari, Italy). Culture and seeding conditions for doxorubicin transport assay were carried out as reported in [37].
(§2) Supplementary Figure S3. Effects of Pgp ligands on doxorubicin transport in Pgp-MDCK,
(§3) MRP1-MDCK and BCRP-MDCK cells
(§4) A. MDCK, Pgp-MDCK, MRP1-MDCK, BCRP-MDCK cells were lysed and immunoblotted with
(§5) h. When indicated, 50 μM verapamil (ver), an inhibitor of Pgp, 25 μM MK571, an inhibitor of […]

Pgp [5] = target: T1, Pgp; conditions: Pgp activity, calcein-AM transport; cited from earlier work
MRP1 = target: T3, MRP1 (Homo sapiens, UniProt P33527); experiment: Doxorubicin transport across MRP1-MDCK monolayer; format: cell-based; conditions: 1 nM compound 24 h, 5 μM doxorubicin last 3 h
T3 construct: expressed in transfected cells; host or cells: MDCK (Madin-Darby Canine Kidney) cells, gift of Dr. Maria Alessandra Contino, University of Bari
T3 sequence (P33527 whole entry): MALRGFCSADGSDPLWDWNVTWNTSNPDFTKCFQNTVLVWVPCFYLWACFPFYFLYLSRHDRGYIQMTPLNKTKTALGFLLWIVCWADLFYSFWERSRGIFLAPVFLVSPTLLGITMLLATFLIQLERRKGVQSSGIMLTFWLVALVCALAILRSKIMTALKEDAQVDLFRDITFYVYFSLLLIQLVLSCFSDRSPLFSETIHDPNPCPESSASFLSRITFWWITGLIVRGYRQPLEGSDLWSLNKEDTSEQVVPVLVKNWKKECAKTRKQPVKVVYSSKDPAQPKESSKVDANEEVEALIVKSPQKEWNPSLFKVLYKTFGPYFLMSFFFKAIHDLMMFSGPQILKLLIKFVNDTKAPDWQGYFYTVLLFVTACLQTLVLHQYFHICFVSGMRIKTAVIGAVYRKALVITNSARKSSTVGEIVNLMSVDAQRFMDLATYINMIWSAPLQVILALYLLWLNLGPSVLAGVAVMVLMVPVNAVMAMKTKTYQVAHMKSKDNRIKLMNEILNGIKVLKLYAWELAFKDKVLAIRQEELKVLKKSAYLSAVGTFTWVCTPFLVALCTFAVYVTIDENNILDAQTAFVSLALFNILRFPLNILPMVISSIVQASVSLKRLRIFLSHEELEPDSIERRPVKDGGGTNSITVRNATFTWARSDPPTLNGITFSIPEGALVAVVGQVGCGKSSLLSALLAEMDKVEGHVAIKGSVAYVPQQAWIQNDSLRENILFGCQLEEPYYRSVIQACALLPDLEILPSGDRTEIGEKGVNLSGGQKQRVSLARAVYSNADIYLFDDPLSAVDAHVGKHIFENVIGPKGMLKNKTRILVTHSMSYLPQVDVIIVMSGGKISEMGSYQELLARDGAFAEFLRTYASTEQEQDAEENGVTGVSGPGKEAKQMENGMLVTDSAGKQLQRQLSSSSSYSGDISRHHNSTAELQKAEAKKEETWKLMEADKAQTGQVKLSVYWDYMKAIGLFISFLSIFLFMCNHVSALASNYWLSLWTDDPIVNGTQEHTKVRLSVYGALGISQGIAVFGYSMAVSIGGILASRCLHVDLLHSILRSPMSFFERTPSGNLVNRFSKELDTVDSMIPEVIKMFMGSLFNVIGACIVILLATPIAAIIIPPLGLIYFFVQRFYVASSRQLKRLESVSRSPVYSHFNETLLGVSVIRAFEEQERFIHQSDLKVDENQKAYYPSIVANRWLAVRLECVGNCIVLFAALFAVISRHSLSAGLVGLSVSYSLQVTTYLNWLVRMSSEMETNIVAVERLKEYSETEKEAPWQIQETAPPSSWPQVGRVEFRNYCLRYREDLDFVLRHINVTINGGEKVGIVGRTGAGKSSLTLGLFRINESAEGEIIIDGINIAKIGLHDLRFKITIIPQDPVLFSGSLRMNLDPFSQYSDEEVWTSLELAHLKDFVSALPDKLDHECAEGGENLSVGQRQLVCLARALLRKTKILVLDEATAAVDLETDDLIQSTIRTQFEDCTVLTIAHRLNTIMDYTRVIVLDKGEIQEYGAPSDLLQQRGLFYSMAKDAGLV
Description: as §1, §2, §3, §4, §5

hCMEC/D3 cells = experiment: Transendothelial electrical resistance (TEER) of BBB monolayer; format: cell-based, human; conditions: 24 h
Pgp [6] = target: T1, Pgp; experiment: Doxorubicin transport across Pgp-MDCK monolayer; format: cell-based; conditions: 1 nM compound 24 h, 5 μM doxorubicin last 3 h
Description: as §1, §2, §3
A. MDCK, Pgp-MDCK, MRP1-MDCK, BCRP-MDCK cells were lysed and immunoblotted with […]

T1 sequence (P08183 whole entry): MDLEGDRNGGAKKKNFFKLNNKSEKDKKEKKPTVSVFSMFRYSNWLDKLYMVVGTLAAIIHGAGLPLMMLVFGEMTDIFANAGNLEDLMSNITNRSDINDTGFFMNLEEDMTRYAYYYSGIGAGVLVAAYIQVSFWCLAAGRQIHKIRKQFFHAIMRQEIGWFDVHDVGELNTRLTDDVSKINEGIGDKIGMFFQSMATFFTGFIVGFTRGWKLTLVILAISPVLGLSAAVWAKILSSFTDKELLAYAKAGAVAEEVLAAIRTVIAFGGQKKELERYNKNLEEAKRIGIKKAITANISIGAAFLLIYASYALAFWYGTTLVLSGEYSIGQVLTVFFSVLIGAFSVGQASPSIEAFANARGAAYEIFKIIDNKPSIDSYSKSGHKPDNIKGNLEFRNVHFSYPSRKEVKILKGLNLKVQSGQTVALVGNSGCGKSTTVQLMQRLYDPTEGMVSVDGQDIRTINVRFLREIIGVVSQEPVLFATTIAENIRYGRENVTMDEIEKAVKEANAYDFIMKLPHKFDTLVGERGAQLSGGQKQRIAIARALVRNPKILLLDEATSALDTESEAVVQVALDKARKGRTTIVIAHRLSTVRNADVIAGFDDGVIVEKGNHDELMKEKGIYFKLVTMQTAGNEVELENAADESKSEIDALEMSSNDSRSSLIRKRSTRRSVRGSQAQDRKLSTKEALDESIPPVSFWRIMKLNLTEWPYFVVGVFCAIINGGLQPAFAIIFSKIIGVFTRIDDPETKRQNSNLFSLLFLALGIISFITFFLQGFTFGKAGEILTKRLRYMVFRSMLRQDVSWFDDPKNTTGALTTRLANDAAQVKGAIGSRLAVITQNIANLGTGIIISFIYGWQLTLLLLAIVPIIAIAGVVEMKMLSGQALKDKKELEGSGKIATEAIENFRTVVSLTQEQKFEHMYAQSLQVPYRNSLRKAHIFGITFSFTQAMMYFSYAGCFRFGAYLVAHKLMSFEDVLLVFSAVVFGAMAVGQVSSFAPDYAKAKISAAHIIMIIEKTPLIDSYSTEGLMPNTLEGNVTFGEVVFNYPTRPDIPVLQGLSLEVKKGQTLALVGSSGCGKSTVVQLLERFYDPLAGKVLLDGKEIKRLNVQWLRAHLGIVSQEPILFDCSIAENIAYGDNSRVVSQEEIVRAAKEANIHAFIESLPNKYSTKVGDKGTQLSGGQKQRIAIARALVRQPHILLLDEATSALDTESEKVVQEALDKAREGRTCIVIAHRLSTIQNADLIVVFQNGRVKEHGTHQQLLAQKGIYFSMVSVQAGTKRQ

In the case of COc1cc2c(cc1OC)CN(Cc1ccc(-c3ccc(O)cc3)cc1)CC2 [7 (MC70), 4′-(6,7-Dimethoxy-3,4-dihydro-1H-isoquinolin-2-ylmethyl)biphenyl-4-ol], the ATP depletion (Pgp [1]) is listed as “does not induce ATP depletion” and the apparent permeability ratio (Caco-2 cells monolayer) is listed as under 2.

In the case of CN(C)C(=O)CCSC(SCCC(=O)O)c1cccc(/C=C/c2ccc3ccc(Cl)cc3n2)c1 (stereo not drawn) [MK571], the “doxorubicin delivery across hCMEC/D3 cells monolayer” value (hCMEC/D3 cells monolayer [2]) is reported as “increased”.

With lucifer yellow the “permeability coefficient across BBB monolayer” value (hCMEC/D3 cells monolayer [3]) was 0.43 ± 0.11 × 10^−3 cm·min^−1.

For [^14C]-inulin, the “permeability coefficient across BBB monolayer” value (hCMEC/D3 cells monolayer [3]; hCMEC/D3 monolayer without compounds, 3 h) was 0.45 ± 0.07 × 10^−3 cm·min^−1.

With COc1cccc2c1C(=O)c1c(O)c3c(c(O)c1C2=O)C[C@@](O)(C(=O)CO)C[C@@H]3O[C@H]1C[C@H](N)[C@H](O)[C@H](C)O1 [doxorubicin] the LDH release ([4]; 24 h) was “increased”, the “caspase 3 activity” value ([4]; 24 h) was “increased” and the cell viability ([4]; 48 h) was “decreased”.

For CCCCOc1ccc(-c2ccc(CN3CCc4cc(OC)c(OC)cc4C3)cc2)cc1 [Compound 6], the “doxorubicin delivery across BCRP-MDCK cells” value (BCRP) is given as “strongly reduced”, the EC50 (Pgp [5]) is given as 5.2 nM and the “doxorubicin delivery across MRP1-MDCK cells” value (MRP1) is given as “strongly reduced”. For the same molecule, the “TEER (Ω cm^2) Compound 1 nM” value (hCMEC/D3 cells; 1 nM compound) was 33 ± 2 Ω cm^2, the “TEER (Ω cm^2) Compound 100 nM” value (hCMEC/D3 cells; 100 nM compound) was 31 ± 4 Ω cm^2 and the “doxorubicin permeability across Pgp-MDCK monolayer” value (Pgp [6]) was “did not change”.

With COc1ccc2c3c([nH]c2c1)[C@H](C=C(C)C)N1C(=O)[C@@H]2CCCN2C(=O)[C@@H]1C3 [fumitremorgin C] the “doxorubicin delivery across hCMEC/D3 cells monolayer” value (hCMEC/D3 cells monolayer [2]) was “increased”.
